Here are results for 40 compounds from patent US11186554B2, “Non-fused tricyclic compounds” (VIVACE THERAPEUTICS, INC., priority 2017, dated 2021).

For orientation: IC50 means the concentration that gives 50% inhibition.

The first assay has as its system firefly luciferase activity. Nature of the assay: Dual-Glo firefly/renilla luciferase reporter assay in cells. Format: cell-based. As to conditions: 24 h, read-out: Firefly Luciferase IC50 (μM). A general note: In a reporter assay the amount or activity of a reporter protein is the signal.
`OCCn1nnc(-c2cc(C(F)(F)F)ccc2Nc2ccc(C(F)(F)F)cc2)n1` [Compound 262, 2-(5-(5-(trifluoromethyl)-2-((4-(trifluoromethyl)phenyl)amino)phenyl)-2H-tetrazol-2-yl)ethanol]: the IC50 lay in the range of 0.1 to 1 µM.
In the case of `CNC(=O)Cn1nnc(-c2ccccc2Nc2ccc(OC(F)(F)F)cc2)n1` [Compound 46, N-methyl-2-[5-[2-[4-(trifluoromethoxy)anilino]phenyl]tetrazol-2-yl]acetamide], the IC50 fell in the range of 0.1 to 1 µM.
Consider `COc1ccc(-c2nnn(CCO)n2)c(Nc2ccc(C(F)(F)F)cc2)c1` [Compound 241, 2-[5-[4-methoxy-2-[4-(trifluoromethyl)anilino]phenyl]tetrazol-2-yl]ethanol], for which the IC50 is < 0.1 µM.
On the same count and under the same terms, next, `OCCn1cnc(-c2ccccc2Nc2cccc(C(F)(F)F)c2)n1` [Compound 39, 2-(3-(2-((3-(trifluoromethyl)phenyl)amino)phenyl)-1H-1,2,4-triazol-1-yl)ethanol]: 1 to 5 µM.
Same read-out and setting: next, `O=C(Cn1nnc(-c2ccccc2Nc2ccc(C(F)(F)F)cc2)n1)NO` [Compound 113, 2-[5-[2-[4-(trifluoromethyl)anilino]phenyl]tetrazol-2-yl]ethanehydroxamic acid]: 0.1 to 1 µM.
Turning to `OCCn1nnc(-c2cccc(F)c2Nc2ccc(C(F)(F)F)cc2)n1` [Compound 188, 2-(5-(3-fluoro-2-((4-(trifluoromethyl)phenyl)amino)phenyl)-2H-tetrazol-2-yl)ethanol], the concentration for half-maximal inhibition (IC50) was < 0.1 µM.
Turning to `OCCn1nnc(-c2cccnc2Nc2ccc(C(F)(F)F)cc2)n1` [Compound 69, 2-(5-(2-((4-(trifluoromethyl)phenyl)amino)pyridin-3-yl)-2H-tetrazol-2-yl)ethanol], the IC50 was in the range of 0.1 to 1 µM.

The assay is the same for the next values; noted with them: 24 hrs compound treatment, starting from 3 uM, 1:3 dilution, 10 points; read-out: Firefly Luciferase IC50.
Regarding `CCN(CC)C(=O)Cn1nnc(-c2ccccc2Nc2ccc(C(F)(F)F)cc2)n1` [Compound 44, N,N-diethyl-2-[5-[2-[4-(trifluoromethyl)anilino]phenyl]tetrazol-2-yl]acetamide], the half-maximal inhibitory concentration (IC50) fell in the range of 1 to 5 µM.
Same read-out and setting: under `Cn1nc(-c2ccccc2Nc2ccc(C(F)(F)F)cc2)nc1CCO` [Compound 205, 2-(1-methyl-3-(2-((4-(trifluoromethyl)phenyl)amino)phenyl)-1H-1,2,4-triazol-5-yl)ethan-1-ol] stands 1 to 5 µM; under `[N-]=[N+]=Nc1ccc(Nc2ccccc2-c2nnn(CCO)n2)cc1` [Compound 179, 2-[5-[2-(4-azidoanilino)phenyl]tetrazol-2-yl]ethanol], 0.1 to 1 µM; under `OCCn1nnc(-c2ccccc2Nc2cccc(OC(F)(F)F)c2)n1` [Compound 24, 2-(5-(2-((3-(Trifluoromethoxy)phenyl)amino)phenyl)-2H-tetrazol-2-yl)ethanol], 0.1 to 1 µM.
The same measure, in the same setting: next, `FC(F)(F)c1ccc(Nc2ccccc2-c2nnn(C3CCCOC3)n2)cc1` (stereo not shown) [Compound 120, 2-(2-tetrahydropyran-3-yltetrazol-5-yl)-N-[4-(trifluoromethyl)phenyl]aniline]: 0.1 to 1 µM; `FC(F)(F)c1ccc(Nc2ccccc2-c2nnn(C3COC3)n2)cc1` [Compound 123, 2-[2-(oxetan-3-yl)tetrazol-5-yl]-N-[4-(trifluoromethyl)phenyl]aniline]: < 0.1 µM; `CO[C@@H](C)[C@H](C)n1nnc(-c2ccccc2Nc2ccc(C(F)(F)F)cc2)n1` [Compound 210, 2-(2-((2S,3S)-3-methoxybutan-2-yl)-2H-tetrazol-5-yl)-N-(4-(trifluoromethyl)phenyl)aniline]: < 0.1 µM.
The same measure, in the same setting: next, `CCc1ccc(Nc2ccc(C(F)(F)F)cc2)c(-c2nnn(CCO)n2)c1` [Compound 256, 2-[5-[5-ethyl-2-[4-(trifluoromethyl)anilino]phenyl]tetrazol-2-yl]ethanol]: < 0.1 µM.
As for `FC(F)(F)c1ccc(Nc2ccccc2-c2nnn(C3CCNC3)n2)cc1` (stereo not shown) [Compound 227, 2-(2-(pyrrolidin-3-yl)-2H-tetrazol-5-yl)-N-(4-(trifluoromethyl)phenyl)aniline], the half-inhibitory concentration (IC50) lay in the range of 0.1 to 1 µM.
The same measure, in the same setting: under `O[C@H]1CNC[C@@H]1n1nnc(-c2ccccc2Nc2ccc(C(F)(F)F)cc2)n1` [Compound 234, (3S,4S)-4-(5-(2-((4-(trifluoromethyl)phenyl)amino)phenyl)-2H-tetrazol-2-yl)pyrrolidin-3-ol] stands 0.1 to 1 µM; under `CC(C)C(O)Cn1nnc(-c2ccccc2Nc2ccc(C(F)(F)F)cc2)n1` (stereo not shown) [Compound 141, 3-methyl-1-[5-[2-[4-(trifluoromethyl)anilino]phenyl]tetrazol-2-yl]butan-2-ol], 0.1 to 1 µM; under `OC(Cn1nnc(-c2ccccc2Nc2ccc(C(F)(F)F)cc2)n1)c1ccccc1` (stereo not shown) [Compound 143, 1-phenyl-2-[5-[2-[4-(trifluoromethyl)anilino]phenyl]tetrazol-2-yl]ethanol], 1 to 5 µM.
Same read-out and setting: under `FC(F)(F)c1ccc(Nc2ccccc2-c2nnn(Cc3ccncc3)n2)cc1` [Compound 41, 2-[2-(4-pyridylmethyl)tetrazol-5-yl]-N-[4-(trifluoromethyl)phenyl]aniline] stands 0.1 to 1 µM.
For the compound `CNCCCn1nnc(-c2ccccc2Nc2ccc(C(F)(F)F)cc2)n1` [Compound 220, 2-(2-(3-(methylamino)propyl)-2H-tetrazol-5-yl)-N-(4-(trifluoromethyl)phenyl) Aniline], the IC50 lay in the range of 1 to 5 µM.
On the same count and under the same terms, under `FC(F)(F)c1ccc(Nc2ccccc2-c2nnn(-c3ccccn3)n2)cc1` [Compound 140, 2-[2-(2-pyridyl)tetrazol-5-yl]-N-[4-(trifluoromethyl)phenyl]aniline] stands 0.1 to 1 µM; under `O=C(O)Cn1cc(-c2ccccc2Nc2ccc(C(F)(F)F)cc2)cn1` [Compound 61, 2-(4-(2-((4-(trifluoromethyl)phenyl)amino)phenyl)-1H-pyrazol-1-yl)acetic Acid], 0.1 to 1 µM.
For `OCCn1nnc(-c2ccc(F)cc2Nc2ccc(C(F)(F)F)cc2)n1` [Compound 181, 2-[5-[4-fluoro-2-[4-(trifluoromethyl)anilino]phenyl]tetrazol-2-yl]ethanol], the IC50 was < 0.1 µM.
Same read-out and setting: next, `FC(F)(F)c1ccc(Nc2ccccc2-c2nnn(-c3cccnc3)n2)cc1` [Compound 165, 2-[2-(3-pyridyl)tetrazol-5-yl]-N-[4-(trifluoromethyl)phenyl]aniline]: 1 to 5 µM.
The same measure, in the same setting: next, `CC(=O)N1CCCC(O)(Cn2nnc(-c3ccccc3Nc3ccc(C(F)(F)F)cc3)n2)C1` (stereo not shown) [Compound 155, 1-(3-hydroxy-3-((5-(2-((4-(trifluoromethyl)phenyl)amino)phenyl)-2H-tetrazol-2-yl)methyl)piperidin-1-yl) Ethanone]: 0.1 to 1 µM.
As for `OCCn1nnc(-c2ccccc2Nc2cccc(C(F)(F)F)c2)n1` [Compound 3, 2-[5-[2-[3-(trifluoromethyl)anilino]phenyl]tetrazol-2-yl]ethanol], the IC50 lay in the range of 1 to 5 µM.
The same measure, in the same setting: under `NCCn1cnc(-c2ccccc2Nc2ccc(C(F)(F)F)cc2)n1` [Compound 230, 2-(1-(2-aminoethyl)-1H-1,2,4-triazol-3-yl)-N-(4-(trifluoromethyl)phenyl)aniline] stands 0.1 to 1 µM; under `NCCCn1nnc(-c2ccccc2Nc2ccc(C(F)(F)F)cc2)n1` [Compound 216, 2-(2-(3-aminopropyl)-2H-tetrazol-5-yl)-N-(4-(trifluoromethyl)phenyl)aniline], 0.1 to 1 µM; under `OC1(Cn2nnc(-c3ccccc3Nc3ccc(C(F)(F)F)cc3)n2)CCCNC1` (stereo not shown) [Compound 156, 3-((5-(2-((4-(trifluoromethyl)phenyl)amino)phenyl)-2H-tetrazol-2-yl)methyl) piperidin-3-ol], 0.1 to 1 µM.
On the same count and under the same terms, next, `CC(=O)OC1(Cn2nnc(-c3ccccc3Nc3ccc(C(F)(F)F)cc3)n2)CN(C(C)=O)C1` [Compound 162, [1-acetyl-3-[[5-[2-[4-(trifluoromethyl)anilino]phenyl]tetrazol-2-yl]methyl]azetidin-3-yl]acetate]: 1 to 5 µM; `FC(F)(F)c1ccc(Nc2ccccc2-c2nnn(Cc3ccccn3)n2)cc1` [Compound 52, 2-[2-(2-pyridylmethyl)tetrazol-5-yl]-N-[4-(trifluoromethyl)phenyl]aniline]: 0.1 to 1 µM.
The same measure, in the same setting: next, `Cn1nc(-c2ccccc2Nc2ccc(C(F)(F)F)cc2)cc1CCO` [Compound 196, 2-(1-methyl-3-(2-((4-(trifluoromethyl)phenyl)amino)phenyl)-1H-pyrazol-5-yl)ethan-1-ol]: 1 to 5 µM.
Consider `Cc1c(-c2ccccc2Nc2ccc(C(F)(F)F)cc2)cnn1CCO` [Compound 84, 2-[5-methyl-4-[2-[4-(trifluoromethyl)anilino]phenyl]pyrazol-1-yl]ethanol], for which the IC50 fell in the range of 1 to 5 µM.
The same measure, in the same setting: under `CCOC(=O)Cn1cc(-c2ccccc2Nc2ccc(C(F)(F)F)cc2)cn1` [Compound 60, ethyl 2-(4-(2-((4-(trifluoromethyl)phenyl)amino)phenyl)-1H-pyrazol-1-yl)acetate] stands < 0.1 µM; under `O=C(Cn1nnc(-c2ccccc2Nc2ccc(C(F)(F)F)cc2)n1)c1ccccc1` [Compound 130, 1-phenyl-2-[5-[2-[4-(trifluoromethyl)anilino]phenyl]tetrazol-2-yl]ethanone], 1 to 5 µM.
Still for that read-out and setting: next, `CN(C)CCCn1nnc(-c2ccccc2Nc2ccc(C(F)(F)F)cc2)n1` [Compound 62, 2-(2-(3-(dimethylamino)propyl)-2H-tetrazol-5-yl)-N-(4-(trifluoromethyl)phenyl) Aniline]: 1 to 5 µM; `O=C1NCC(Cn2nnc(-c3ccccc3Nc3ccc(C(F)(F)F)cc3)n2)N1` (stereo not shown) [Compound 167, 4-((5-(2-((4-(trifluoromethyl)phenyl)amino)phenyl)-2H-tetrazol-2-yl)methyl)imidazolidin-2-one]: 0.1 to 1 µM; `FC(F)(F)c1ccc(Nc2ccccc2-c2nnn(Cc3cccnc3)n2)cc1` [Compound 40, 2-[2-(3-pyridylmethyl)tetrazol-5-yl]-N-[4-(trifluoromethyl)phenyl]aniline]: 0.1 to 1 µM.
The same measure, in the same setting: next, `O=C1NC(Cn2nnc(-c3ccccc3Nc3ccc(C(F)(F)F)cc3)n2)CO1` (stereo not shown) [Compound 180, 4-((5-(2-((4-(trifluoromethyl)phenyl)amino)phenyl)-2H-tetrazol-2-yl)methyl)oxazolidin-2-one]: 0.1 to 1 µM.
